{
  "source": "ChEMBL document CHEMBL5442175",
  "about": "“EUbOPEN Chemogenomics Library - PDSP Secondary Binding” (2024)",
  "key": {"[1]": {"biological_target": "5-hydroxytryptamine receptor 1B (Homo sapiens, UniProt P28222)", "sequence (P28222 whole entry)": "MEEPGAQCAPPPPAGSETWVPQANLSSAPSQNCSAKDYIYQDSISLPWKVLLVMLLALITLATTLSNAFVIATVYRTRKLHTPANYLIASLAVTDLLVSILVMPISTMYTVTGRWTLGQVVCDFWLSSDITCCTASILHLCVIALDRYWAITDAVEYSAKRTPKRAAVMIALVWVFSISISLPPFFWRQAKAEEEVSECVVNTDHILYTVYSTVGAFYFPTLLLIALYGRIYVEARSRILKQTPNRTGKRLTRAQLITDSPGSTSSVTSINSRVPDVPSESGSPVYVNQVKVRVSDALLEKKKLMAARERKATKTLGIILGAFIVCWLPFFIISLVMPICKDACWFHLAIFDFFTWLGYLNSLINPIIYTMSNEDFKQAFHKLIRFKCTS", "test": "(§1) PDSP Secondary Binding target: HTR1B - Compounds are tested at 10 uM concentration, plate are incubated at room temperature in the dark for 90 minutes. Reaction are stopped by vacuum filtration onto 0.3% polyethyleneimine soaked filter mats using Filtermate harvester. Scintillation cocktail is then melted onto microwave-dried filters on a hot plate and the radio activity is counted in Microbia counter."}, "[2]": {"biological_target": "5-hydroxytryptamine receptor 1D (Homo sapiens, UniProt P28221)", "sequence (P28221 whole entry)": "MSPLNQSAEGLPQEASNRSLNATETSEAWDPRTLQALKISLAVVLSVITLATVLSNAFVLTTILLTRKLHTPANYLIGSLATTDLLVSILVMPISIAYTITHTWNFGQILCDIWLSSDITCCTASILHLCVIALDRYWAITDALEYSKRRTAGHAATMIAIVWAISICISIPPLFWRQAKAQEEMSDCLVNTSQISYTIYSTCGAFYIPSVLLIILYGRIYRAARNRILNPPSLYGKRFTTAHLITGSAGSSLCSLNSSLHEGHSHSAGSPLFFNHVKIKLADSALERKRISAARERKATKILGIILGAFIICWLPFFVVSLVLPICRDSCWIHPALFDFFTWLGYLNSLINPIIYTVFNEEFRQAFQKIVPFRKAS", "test": "as §1, with “HTR1D” for “HTR1B”"}, "[3]": {"biological_target": "5-hydroxytryptamine receptor 5A (Homo sapiens, UniProt P47898)", "sequence (P47898 whole entry)": "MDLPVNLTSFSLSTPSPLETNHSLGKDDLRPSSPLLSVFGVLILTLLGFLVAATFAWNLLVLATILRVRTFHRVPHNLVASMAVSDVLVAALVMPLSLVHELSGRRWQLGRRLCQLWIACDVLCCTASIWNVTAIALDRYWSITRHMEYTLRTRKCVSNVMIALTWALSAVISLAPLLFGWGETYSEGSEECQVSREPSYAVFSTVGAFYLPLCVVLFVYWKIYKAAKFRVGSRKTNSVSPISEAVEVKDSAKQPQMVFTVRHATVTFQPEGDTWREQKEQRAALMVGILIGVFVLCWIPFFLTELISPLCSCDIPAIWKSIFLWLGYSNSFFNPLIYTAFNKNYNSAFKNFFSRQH", "test": "as §1, with “HTR5A” for “HTR1B”"}, "[4]": {"biological_target": "5-hydroxytryptamine receptor 7 (Homo sapiens, UniProt P34969)", "sequence (P34969 whole entry)": "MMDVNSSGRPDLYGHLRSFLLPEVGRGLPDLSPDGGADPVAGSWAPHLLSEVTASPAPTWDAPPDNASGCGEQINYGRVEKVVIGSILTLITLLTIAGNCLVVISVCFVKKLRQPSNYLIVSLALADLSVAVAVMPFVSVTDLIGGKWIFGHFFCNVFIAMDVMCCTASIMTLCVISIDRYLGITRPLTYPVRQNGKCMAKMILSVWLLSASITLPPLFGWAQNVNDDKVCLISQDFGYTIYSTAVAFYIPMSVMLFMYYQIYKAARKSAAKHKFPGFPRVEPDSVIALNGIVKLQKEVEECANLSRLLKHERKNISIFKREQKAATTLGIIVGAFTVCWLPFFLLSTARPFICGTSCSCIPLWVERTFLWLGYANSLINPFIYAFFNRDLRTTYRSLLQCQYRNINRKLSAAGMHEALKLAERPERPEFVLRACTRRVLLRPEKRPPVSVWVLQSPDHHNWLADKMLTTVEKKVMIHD", "test": "as §1, with “HTR7” for “HTR1B”"}, "[5]": {"biological_target": "Sigma intracellular receptor 2 (Homo sapiens, UniProt Q5BJF2)", "sequence (Q5BJF2 whole entry)": "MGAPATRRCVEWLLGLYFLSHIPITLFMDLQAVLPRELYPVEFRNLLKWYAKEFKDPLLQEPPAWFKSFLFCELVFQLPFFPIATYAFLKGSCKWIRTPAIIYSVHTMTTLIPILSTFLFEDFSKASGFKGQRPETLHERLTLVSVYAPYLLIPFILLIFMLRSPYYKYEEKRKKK", "test": "as §1, with “TMEM97” for “HTR1B”"}, "[6]": {"biological_target": "T1, 5-hydroxytryptamine receptor 2C (Homo sapiens, UniProt P28335)", "T1 sequence (P28335 whole entry)": "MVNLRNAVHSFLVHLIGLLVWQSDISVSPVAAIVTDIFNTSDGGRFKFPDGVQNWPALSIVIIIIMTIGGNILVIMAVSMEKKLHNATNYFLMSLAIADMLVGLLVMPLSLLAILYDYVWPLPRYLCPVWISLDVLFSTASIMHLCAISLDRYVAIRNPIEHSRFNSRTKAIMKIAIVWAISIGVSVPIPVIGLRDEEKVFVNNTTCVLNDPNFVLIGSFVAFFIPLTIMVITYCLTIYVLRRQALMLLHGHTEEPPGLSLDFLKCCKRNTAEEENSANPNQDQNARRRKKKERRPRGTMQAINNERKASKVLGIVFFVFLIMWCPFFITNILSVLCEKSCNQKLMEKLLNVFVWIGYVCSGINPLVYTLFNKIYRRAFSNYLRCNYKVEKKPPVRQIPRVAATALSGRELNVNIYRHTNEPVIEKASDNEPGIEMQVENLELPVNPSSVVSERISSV", "test": "as §1, with “HTR2C” for “HTR1B”"}, "[7]": {"biological_target": "Sigma non-opioid intracellular receptor 1 (Homo sapiens, UniProt Q99720)", "sequence (Q99720 whole entry)": "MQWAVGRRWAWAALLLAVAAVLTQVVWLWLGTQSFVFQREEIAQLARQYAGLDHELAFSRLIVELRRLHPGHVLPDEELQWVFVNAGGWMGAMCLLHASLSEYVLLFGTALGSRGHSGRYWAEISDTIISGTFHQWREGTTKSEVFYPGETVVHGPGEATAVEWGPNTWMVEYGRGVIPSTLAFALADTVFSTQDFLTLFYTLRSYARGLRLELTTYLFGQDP", "test": "as §1, with “SIGMAR1” for “HTR1B”"}, "[8]": {"biological_target": "5-hydroxytryptamine receptor 2A (Homo sapiens, UniProt P28223)", "sequence (P28223 whole entry)": "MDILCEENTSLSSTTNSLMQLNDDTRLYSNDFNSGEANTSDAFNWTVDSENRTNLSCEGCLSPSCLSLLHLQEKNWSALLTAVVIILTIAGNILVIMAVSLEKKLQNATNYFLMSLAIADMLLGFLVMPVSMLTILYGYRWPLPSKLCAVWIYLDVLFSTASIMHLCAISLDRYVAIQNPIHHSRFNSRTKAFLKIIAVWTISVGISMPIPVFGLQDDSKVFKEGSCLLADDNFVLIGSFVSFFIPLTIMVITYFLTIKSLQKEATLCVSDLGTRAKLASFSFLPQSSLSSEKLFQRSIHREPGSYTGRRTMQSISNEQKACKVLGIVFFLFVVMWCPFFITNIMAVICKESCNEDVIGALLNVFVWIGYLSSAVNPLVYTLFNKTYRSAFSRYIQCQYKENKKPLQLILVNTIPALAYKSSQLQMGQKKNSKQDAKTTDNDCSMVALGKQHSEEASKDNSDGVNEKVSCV", "test": "as §1, with “HTR2A” for “HTR1B”"}, "[9]": {"biological_target": "Muscarinic acetylcholine receptor M3 (Homo sapiens, UniProt P20309)", "sequence (P20309 whole entry)": "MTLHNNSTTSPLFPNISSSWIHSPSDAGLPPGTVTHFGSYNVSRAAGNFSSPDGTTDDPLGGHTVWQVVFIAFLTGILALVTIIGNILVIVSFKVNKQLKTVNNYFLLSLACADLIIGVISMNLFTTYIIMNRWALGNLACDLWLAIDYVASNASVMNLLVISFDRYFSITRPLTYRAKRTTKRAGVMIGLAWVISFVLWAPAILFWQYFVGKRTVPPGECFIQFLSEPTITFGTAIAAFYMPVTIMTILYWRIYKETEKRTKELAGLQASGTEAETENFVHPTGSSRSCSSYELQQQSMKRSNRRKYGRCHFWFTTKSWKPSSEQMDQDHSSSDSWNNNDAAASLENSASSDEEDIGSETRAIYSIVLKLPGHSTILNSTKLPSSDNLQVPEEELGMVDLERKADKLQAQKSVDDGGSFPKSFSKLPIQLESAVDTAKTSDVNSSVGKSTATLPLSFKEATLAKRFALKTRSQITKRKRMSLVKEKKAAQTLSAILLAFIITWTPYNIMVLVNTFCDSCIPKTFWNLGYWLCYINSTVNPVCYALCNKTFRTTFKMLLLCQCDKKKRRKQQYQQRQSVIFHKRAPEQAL", "test": "as §1, with “CHRM3” for “HTR1B”"}, "[10]": {"biological_target": "T2, 5-hydroxytryptamine receptor 1A (Homo sapiens, UniProt P08908)", "T2 sequence (P08908 whole entry)": "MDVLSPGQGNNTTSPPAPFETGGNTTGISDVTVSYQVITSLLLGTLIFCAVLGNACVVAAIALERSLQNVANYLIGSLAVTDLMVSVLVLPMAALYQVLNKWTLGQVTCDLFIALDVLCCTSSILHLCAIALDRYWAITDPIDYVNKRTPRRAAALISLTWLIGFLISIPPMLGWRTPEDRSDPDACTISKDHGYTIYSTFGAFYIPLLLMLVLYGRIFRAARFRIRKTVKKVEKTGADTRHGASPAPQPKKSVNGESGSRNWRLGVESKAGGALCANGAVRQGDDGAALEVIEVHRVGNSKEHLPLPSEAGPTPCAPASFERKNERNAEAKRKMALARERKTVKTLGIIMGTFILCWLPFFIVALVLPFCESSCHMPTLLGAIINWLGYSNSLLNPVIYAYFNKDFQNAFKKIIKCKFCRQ", "test": "as §1, with “HTR1A” for “HTR1B”"}, "[11]": {"biological_target": "T3, D(4) dopamine receptor (Homo sapiens, UniProt P21917)", "T3 sequence (P21917 whole entry)": "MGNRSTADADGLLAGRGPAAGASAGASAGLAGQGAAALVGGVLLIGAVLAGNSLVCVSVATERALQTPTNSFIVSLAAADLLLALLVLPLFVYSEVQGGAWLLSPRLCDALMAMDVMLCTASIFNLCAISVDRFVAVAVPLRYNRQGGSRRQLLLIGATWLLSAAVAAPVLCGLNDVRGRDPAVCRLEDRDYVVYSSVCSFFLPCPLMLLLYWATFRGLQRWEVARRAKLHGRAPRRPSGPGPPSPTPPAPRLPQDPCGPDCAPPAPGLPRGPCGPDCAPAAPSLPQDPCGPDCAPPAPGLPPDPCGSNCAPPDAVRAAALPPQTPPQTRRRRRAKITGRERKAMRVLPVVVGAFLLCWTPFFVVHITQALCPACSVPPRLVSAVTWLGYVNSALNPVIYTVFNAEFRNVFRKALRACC", "test": "as §1, with “DRD4” for “HTR1B”"}, "[12]": {"biological_target": "D(3) dopamine receptor (Homo sapiens, UniProt P35462)", "sequence (P35462 whole entry)": "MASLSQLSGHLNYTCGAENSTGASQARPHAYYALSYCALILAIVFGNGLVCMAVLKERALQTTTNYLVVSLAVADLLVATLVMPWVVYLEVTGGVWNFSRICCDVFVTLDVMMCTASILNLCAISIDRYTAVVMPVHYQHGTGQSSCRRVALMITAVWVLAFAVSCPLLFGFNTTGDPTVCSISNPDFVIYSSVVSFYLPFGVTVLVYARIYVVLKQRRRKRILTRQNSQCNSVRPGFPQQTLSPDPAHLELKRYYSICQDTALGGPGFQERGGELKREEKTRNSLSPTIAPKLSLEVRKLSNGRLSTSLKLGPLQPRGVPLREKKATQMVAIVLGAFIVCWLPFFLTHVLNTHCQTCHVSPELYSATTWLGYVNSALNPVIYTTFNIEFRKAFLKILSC", "test": "as §1, with “DRD3” for “HTR1B”"}},
  "note": "Structures can show the parent of a compound that is named as a salt.",
  "data": [
    {"smiles": "CN(C)C(=O)N[C@H]1CC[C@H](CCN2CCN(c3cccc(Cl)c3Cl)CC2)CC1", "note": "[CARIPRAZINE HYDROCHLORIDE]", "values": [
      {"measurement": "Ki", "setting": "[1]", "result": 129, "unit": "nM"},
      {"measurement": "Ki", "setting": "[2]", "result": 76.8, "unit": "nM"},
      {"measurement": "Ki", "setting": "[3]", "result": 3290, "unit": "nM"},
      {"measurement": "Ki", "setting": "[4]", "result": 76.1, "unit": "nM"},
      {"measurement": "Ki", "setting": "[5]", "result": 488, "unit": "nM"},
      {"measurement": "Ki", "setting": "[6]", "result": 1250, "unit": "nM"}
    ]},
    {"smiles": "Cc1nc(-c2ccc(-c3ccc(C(=O)N4CCc5cc6c(cc54)C4(CCN(C)CC4)CO6)cc3)c(C)c2)no1", "note": "[SB-224289]", "values": [
      {"measurement": "Ki", "setting": "[5]", "result": 502, "unit": "nM"},
      {"measurement": "Ki", "setting": "[7]", "result": 4340, "unit": "nM"},
      {"measurement": "Ki", "setting": "[6]", "result": 859, "unit": "nM"},
      {"measurement": "Ki", "setting": "[8]", "result": 1780, "unit": "nM"},
      {"measurement": "Ki", "setting": "[9]", "result": 926, "unit": "nM"}
    ]},
    {"smiles": "CN1CCN(c2ccc(Nc3c4ccccc4nc4ccccc34)cc2)CC1", "values": [
      {"measurement": "Ki", "setting": "[2]", "result": 1620, "unit": "nM"},
      {"measurement": "Ki", "setting": "[4]", "result": 414, "unit": "nM"},
      {"measurement": "Ki", "setting": "[5]", "result": 936, "unit": "nM"},
      {"measurement": "Ki", "setting": "[7]", "result": 412, "unit": "nM"}
    ]},
    {"smiles": "CCCCCNC(=N)N/N=C/c1c[nH]c2ccc(OC)cc12", "note": "[TEGASEROD MALEATE]", "values": [
      {"measurement": "Ki", "setting": "[10]", "result": 83.9, "unit": "nM"},
      {"measurement": "Ki", "setting": "[2]", "result": 50.1, "unit": "nM"},
      {"measurement": "Ki", "setting": "[3]", "result": 201, "unit": "nM"},
      {"measurement": "Ki", "setting": "[5]", "result": 57.2, "unit": "nM"},
      {"measurement": "Ki", "setting": "[11]", "result": 191, "unit": "nM"},
      {"measurement": "Ki", "setting": "[7]", "result": 177, "unit": "nM"},
      {"measurement": "Ki", "setting": "[12]", "result": 426, "unit": "nM"},
      {"measurement": "Ki", "setting": "[6]", "result": 142, "unit": "nM"},
      {"measurement": "Ki", "setting": "[8]", "result": 431, "unit": "nM"}
    ]},
    {"smiles": "Cc1ccc2c(c1)c1c(n2CCc2ccc(C)nc2)CCN(C)C1", "note": "[LATREPIRDINE]", "values": [
      {"measurement": "Ki", "setting": "[2]", "result": 419, "unit": "nM"},
      {"measurement": "Ki", "setting": "[3]", "result": 107, "unit": "nM"},
      {"measurement": "Ki", "setting": "[4]", "result": 14.7, "unit": "nM"},
      {"measurement": "Ki", "setting": "[7]", "result": 1310, "unit": "nM"},
      {"measurement": "Ki", "setting": "[12]", "result": 461, "unit": "nM"},
      {"measurement": "Ki", "setting": "[8]", "result": 726, "unit": "nM"}
    ]},
    {"smiles": "Cc1nc2sccn2c(=O)c1CCN1CCC(=C(c2ccc(F)cc2)c2ccc(F)cc2)CC1", "note": "[RITANSERIN]", "values": [
      {"measurement": "Ki", "setting": "[1]", "result": 281, "unit": "nM"},
      {"measurement": "Ki", "setting": "[3]", "result": 102, "unit": "nM"},
      {"measurement": "Ki", "setting": "[4]", "result": 47.3, "unit": "nM"},
      {"measurement": "Ki", "setting": "[5]", "result": 339, "unit": "nM"},
      {"measurement": "Ki", "setting": "[11]", "result": 238, "unit": "nM"},
      {"measurement": "Ki", "setting": "[7]", "result": 426, "unit": "nM"},
      {"measurement": "Ki", "setting": "[12]", "result": 35.5, "unit": "nM"},
      {"measurement": "Ki", "setting": "[6]", "result": 4.09, "unit": "nM"}
    ]},
    {"smiles": "Clc1cccc(COc2cncc(N3CCNCC3)n2)c1", "values": [
      {"measurement": "Ki", "setting": "[10]", "result": 7440, "unit": "nM"},
      {"measurement": "Ki", "setting": "[1]", "result": 1660, "unit": "nM"},
      {"measurement": "Ki", "setting": "[2]", "result": 69.5, "unit": "nM"},
      {"measurement": "Ki", "setting": "[4]", "result": 556, "unit": "nM"},
      {"measurement": "Ki", "setting": "[7]", "result": 32.7, "unit": "nM"},
      {"measurement": "Ki", "setting": "[12]", "result": 284, "unit": "nM"},
      {"measurement": "Ki", "setting": "[6]", "result": 9.45, "unit": "nM"},
      {"measurement": "Ki", "setting": "[8]", "result": 105, "unit": "nM"},
      {"measurement": "Ki", "setting": "[9]", "result": 851, "unit": "nM"}
    ]},
    {"smiles": "S=C(NCCCc1c[nH]cn1)NCCCN(Cc1ccc(Cl)c(Cl)c1)c1ccc(Br)cn1", "values": [
      {"measurement": "Ki", "setting": "[1]", "result": 1040, "unit": "nM"},
      {"measurement": "Ki", "setting": "[3]", "result": 1550, "unit": "nM"},
      {"measurement": "Ki", "setting": "[4]", "result": 1540, "unit": "nM"},
      {"measurement": "Ki", "setting": "[5]", "result": 153, "unit": "nM"},
      {"measurement": "Ki", "setting": "[12]", "result": 641, "unit": "nM"},
      {"measurement": "Ki", "setting": "[6]", "result": 251, "unit": "nM"},
      {"measurement": "Ki", "setting": "[8]", "result": 202, "unit": "nM"}
    ]},
    {"smiles": "CCc1nn(CCCN2CCN(c3cccc(Cl)c3)CC2)c(=O)n1CCOc1ccccc1", "note": "[NEFAZODONE HYDROCHLORIDE]", "values": [
      {"measurement": "Ki", "setting": "[1]", "result": 262, "unit": "nM"},
      {"measurement": "Ki", "setting": "[2]", "result": 122, "unit": "nM"},
      {"measurement": "Ki", "setting": "[3]", "result": 1090, "unit": "nM"},
      {"measurement": "Ki", "setting": "[4]", "result": 70.2, "unit": "nM"},
      {"measurement": "Ki", "setting": "[5]", "result": 222, "unit": "nM"},
      {"measurement": "Ki", "setting": "[11]", "result": 326, "unit": "nM"},
      {"measurement": "Ki", "setting": "[12]", "result": 380, "unit": "nM"}
    ]},
    {"smiles": "OCc1cc(C(O)CNCCCCCCOCCCCc2ccccc2)ccc1O", "note": "(stereo not drawn) [SALMETEROL]", "values": [
      {"measurement": "Ki", "setting": "[1]", "result": 1990, "unit": "nM"},
      {"measurement": "Ki", "setting": "[2]", "result": 1040, "unit": "nM"},
      {"measurement": "Ki", "setting": "[4]", "result": 257, "unit": "nM"},
      {"measurement": "Ki", "setting": "[5]", "result": 32.4, "unit": "nM"},
      {"measurement": "Ki", "setting": "[11]", "result": 1080, "unit": "nM"},
      {"measurement": "Ki", "setting": "[12]", "result": 1260, "unit": "nM"},
      {"measurement": "Ki", "setting": "[6]", "result": 4090, "unit": "nM"}
    ]}
  ]
}
